Measurements: US10238661B2, “Fused, spirocyclic heteroaromatic compounds for the treatment of bacterial infections” (priority 2014, dated 2019)
In brackets after ≈: the same amount, converted by molar mass. Several values for one entry are separate records, joined by “and”; a condition that tells them apart may be missing. Equal entries are not always repeated. Where two headings read alike, the source gives them in different places.

Tests used:
Mycoplasma pneumoniae [1] = settings: Mycoplasma pneumoniae ATCC 29342; CLSI M43-A acceptable QC range; cited from earlier work
Ureaplasma species [2] = settings: Ureaplasma urealyticum ATCC 33175; CLSI M43-A acceptable QC range; cited from earlier work
Mycoplasma genitalium = test: microbe, parasite or virus in culture; assay type: cell-based; settings: for MIC: Mycoplasmoides genitalium
Mycoplasma pneumoniae [3] = test: Broth microdilution MIC assay (CLSI M43-A), M. pneumoniae; assay type: cell-based; settings: for MIC: read-out: MIC
Mycoplasma hominis = test: microbe, parasite or virus in culture; assay type: cell-based
Ureaplasma species [4] = test: microbe, parasite or virus in culture; assay type: cell-based, Ureaplasma urealyticum, Ureaplasma parvum
Burkholderia mallei = test: microbe, parasite or virus in culture; assay type: cell-based
Brucella abortus = test: microbe, parasite or virus in culture; assay type: cell-based
Yersinia pestis = test: microbe, parasite or virus in culture; assay type: cell-based; settings: Yersinia pestis
Francisella tularensis = test: microbe, parasite or virus in culture; assay type: cell-based; settings: Francisella tularensis
Bacillus anthracis = test: microbe, parasite or virus in culture; assay type: cell-based; settings: Bacillus anthracis
Brucella suis = test: microbe, parasite or virus in culture; assay type: cell-based

For `CC[C@H]1OC(=O)[C@H](C)[C@@H](O[C@H]2C[C@@](C)(OC)[C@@H](O)[C@H](C)O2)[C@H](C)[C@@H](O[C@@H]2O[C@H](C)C[C@H](N(C)C)[C@H]2O)[C@](C)(O)C[C@@H](C)C(=O)[C@H](C)[C@@H](O)[C@]1(C)O` [Erythromycin], the “MIC Limits for Quality Control Strain” value (Mycoplasma pneumoniae [1]) is given as 0.004 to 0.063 µg/mL and the “MIC Limits for Quality Control Strain” value (Ureaplasma species [2]) is given as 1 to 8 µg/mL.
For `C[C@H]1COc2c(N3CCN(C)CC3)c(F)cc3c(=O)c(C(=O)O)cn1c23` [Levofloxacin], the “MIC Range” value (Mycoplasma genitalium) was 0.5 to 2 µg/mL, the MIC (Mycoplasma genitalium) was 0.5 µg/mL (≈ 1.38 µM) and the MIC (Mycoplasma genitalium; ATCC33530) was 2 µg/mL (≈ 5.53 µM). For the same molecule, the MIC (Mycoplasma genitalium; ATCC49895) was 2 µg/mL (≈ 5.53 µM), the MIC (Mycoplasma genitalium; ATCC49899) was 2 µg/mL (≈ 5.53 µM) and the MIC (Mycoplasma pneumoniae [3]; M. pneumoniae M-129 QC Strain ATCC 29342-B7) was 1 µg/mL (≈ 2.77 µM). The MIC (Mycoplasma pneumoniae [3]; M. pneumoniae isolate 51494) was 1 µg/mL (≈ 2.77 µM), the MIC (Mycoplasma pneumoniae [3]; M. pneumoniae isolate 53706) was 0.5 µg/mL (≈ 1.38 µM) and the MIC (Mycoplasma pneumoniae [3]; M. pneumoniae isolate 53938) was 1 µg/mL (≈ 2.77 µM). It also gave an MIC (Mycoplasma pneumoniae [3]; M. pneumoniae isolate 54484, macrolide-resistant) of 0.5 µg/mL (≈ 1.38 µM), an MIC (Mycoplasma pneumoniae [3]; M. pneumoniae isolate 54506, macrolide-resistant) of 0.5 µg/mL (≈ 1.38 µM) and an MIC (Mycoplasma pneumoniae [3]; M. pneumoniae isolate 55246) of 1 µg/mL (≈ 2.77 µM). The MIC (Mycoplasma pneumoniae [3]; M. pneumoniae isolate 55612) was 0.5 µg/mL (≈ 1.38 µM), the MIC (Mycoplasma pneumoniae [3]; M. pneumoniae isolate 57807) was 0.5 µg/mL (≈ 1.38 µM) and the MIC (Mycoplasma pneumoniae [3]; M. pneumoniae isolate 58188) was 0.5 µg/mL (≈ 1.38 µM). For the same molecule, the MIC (Mycoplasma pneumoniae [3]; M. pneumoniae isolate 58772) was 1 µg/mL (≈ 2.77 µM), the MIC (Mycoplasma pneumoniae [3]; M. pneumoniae isolate 59597) was 0.5 µg/mL (≈ 1.38 µM) and the MIC (Mycoplasma pneumoniae [3]; M. pneumoniae isolate 59598) was 1 µg/mL (≈ 2.77 µM). For the same molecule, the MIC50 (Mycoplasma pneumoniae [3]; M. pneumoniae isolates, n = 12) was 0.5 µg/mL (≈ 1.38 µM), the MIC90 (Mycoplasma pneumoniae [3]; M. pneumoniae isolates, n = 12) was 1 µg/mL (≈ 2.77 µM) and the “MIC Range” value (Mycoplasma pneumoniae [3]; M. pneumoniae isolates, n = 12) was 0.5 to 1 µg/mL. The “MIC Range” value (Mycoplasma hominis) was 0.063 to 0.25 µg/mL, the MIC50 (Mycoplasma hominis; Metamycoplasma hominis) was 0.125 µg/mL (≈ 0.346 µM) and the MIC90 (Mycoplasma hominis; Metamycoplasma hominis) was 0.25 µg/mL (≈ 0.692 µM). For the same molecule, the “MIC Range” value (Ureaplasma species [4]) was 0.25 to 32 µg/mL, the MIC50 (Ureaplasma species [4]; Ureaplasma) was 1 µg/mL (≈ 2.77 µM) and the MIC90 (Ureaplasma species [4]; Ureaplasma) was 8 µg/mL (≈ 22.1 µM). For the same molecule, the MIC (Ureaplasma species [4]; Ureaplasma, ATCC33175) was 1 µg/mL (≈ 2.77 µM), the MIC (Burkholderia mallei) was 0.5 µg/mL and 0.25 µg/mL and the MIC (Brucella abortus) was 0.25 µg/mL (≈ 0.692 µM). The MIC (Brucella abortus; Brucella abortus) was 0.5 µg/mL (≈ 1.38 µM), the MIC (Yersinia pestis) was ≤ 0.25 µg/mL and the MIC (Francisella tularensis) was ≤ 0.125 µg/mL. For the same molecule, the MIC (Bacillus anthracis) was ≤ 0.25 µg/mL, the MIC (Brucella suis) was 0.25 µg/mL (≈ 0.692 µM) and the MIC (Brucella suis; Brucella suis) was 0.5 µg/mL (≈ 1.38 µM).
For `CC[C@H]1OC(=O)[C@H](C)C(=O)[C@H](C)[C@@H](O[C@@H]2O[C@H](C)C[C@H](N(C)C)[C@H]2O)[C@](C)(OC)C[C@@H](C)C(=O)[C@H](C)[C@H]2N(CCCCn3cnc(-c4cccnc4)c3)C(=O)O[C@]12C` [Telithromycin], the “MIC Limits for Quality Control Strain” value (Ureaplasma species [2]) is given as 0.125 to 1 µg/mL.
In the case of `CN(C)[C@@H]1C(O)=C(C(N)=O)C(=O)[C@@]2(O)C(O)=C3C(=O)c4c(O)cccc4[C@@](C)(O)[C@H]3C[C@@H]12` [Tetracycline], the “MICs for isolates with tetM” value (Mycoplasma hominis) was 32 µg/mL.
